Assay results as given in patent publication US20100260753A1, “AMINOFLAVONE (NSC 686288) AND COMBINATIONS THEREOF FOR TREATING BREAST CANCER” (priority 2007, published 2010).
Where “and” joins values, the source holds several entries; their conditions need not be identical. Equal values may be shown once. Read-outs that look alike come from different tables or passages of the source. Values belong to the compound of their own block, whether it stands above or below them.

Experiments:
MCF-7 cells = experiment: aminoflavone combination with estrogen receptor antagonists in MCF-7 cells; format: cell-based, human; details: administered with aminoflavone (FIG. 9)
Protocol: To examine the role of estrogen receptor in aminoflavone sensitivity, the inventors combined aminoflavone with a fixed concentration (100 nM) of the “pure” antiestrogen Faslodex® in MCF-7 cells.

MCF-7 [1] = experiment: MTT proliferation assay, MCF-7; format: cell-based, human
Protocol: (§1) FIG. 2A depicts in vitro MTT proliferation assay (5 days) showing aminoflavone activity in ER(+) and ER(−) breast cancer cell lines.
(§2) FIG. 2B depicts an MTT assay (10 days) comparing the sensitivity of parental MCF-7 to aminoflavone and the tamoxifen resistant subclone MCF-7TAM1 to 4-OH tamoxifen (TAM) and aminoflavone respectively. Cells were grown in medium with charcoal-stripped fetal calf serum supplemented with 10 nM E2, estrogen. MCF-7 cells that have become resistant to tamoxifen by either selection (MCF-7TAM1, FIG. 2B), or genetic manipulation (MCF-7Her2-18, Table 1), remain sensitive to aminoflavone. An understanding of how MCF-7 DF203r and MDA-MB-231 differ from MCF-7 in the dynamics and distribution of their AhR and AhR associated signaling complexes may allow the clarification of the basis for aminoflavone sensitivity and resistance.
(§3) Table 1 below summarizes the results of the MTT (methyl tetrazolium) tests that were performed to assay cell growth in a panel breast cell lines and their characteristics. Both, MCF-7Her2-18 and MCF-7TAM1 express estrogen receptor. […] The ER(−) cells MDA-MB-231 and MCF10A with nuclear AhR are several log-fold less sensitive to aminoflavone (Table 1, FIG. 4). These observations confirm that aminoflavone is valuable in patients who have lost clinical benefit from estrogen receptor antagonists.
(§4) The inhibitory concentrations 50% (IC50) and 100% (IC100) listed in Table 1 represent the mean of three independent experiments. The estrogen receptor and AhR assays were performed three times.

MCF-7 HER2-18 [2] = experiment: MTT proliferation assay, MCF-7 HER2-18; format: cell-based, human; details: mean of three independent experiments
Protocol: as §2
(§5) MCF-7Her2-18 is a variant of MCF-7 over-expressing the Her2/neu oncoprotein. As a result, it is resistant to Herceptin® (Shou et al. 2004 “Mechanisms of tamoxifen resistance: increased estrogen receptor-HER2/neu cross-talk in ER/HER2-positive breast cancer.” J Nat Cancer Inst 96: 926-35) and tamoxifen. […] (1999 “A multidrug resistance transporter from human MCF-7 breast cancer cells.” Proc Natl Acad Sci USA. 95: 15665-70.) The IC50s (16-20 nM) and IC100s of aminoflavone (˜300 nM) were nearly identical in MCF-7Her2-18 and parental MCF-7 cells (See Table 1, below). In MCF-7TAM1 cells, which were serum starved and then treated for 10 days with E2 alone, 4-OH-tamoxifen plus E2, and aminoflavone plus E2, the concentration of 4-OH-tamoxifen causing growth inhibition was >10 μM.
as §3, with “antagonists. […]” for “antagonists.”

MCF-7 TAM1 [3] = experiment: MTT proliferation assay, MCF-7 TAM1; format: cell-based, human
Protocol: as §2, §5
as §3, with “antagonists. […]” for “antagonists.”

T47D [4] = experiment: MTT proliferation assay, T47D; format: cell-based, human
Protocol: as §1, §3, §4

MDA-MB-231 [5] = experiment: MTT proliferation assay, MDA-MB-231; format: cell-based, human
Protocol: as §1, §3, §4

MCF10A [6] = experiment: MTT proliferation assay, MCF10A; format: cell-based, human
Protocol: as §3, §4

MCF-7 [7] = experiment: γ-H2AX foci induction, MCF-7; format: cell-based, human; details: IC50 concentrations, 24 hrs after exposure
Description: (§6) Previous studies have reported that the occurrence of foci of phosphorylated γ-H2AX is indicative of the cellular response to aminoflavone in MCF-7 cells (Meng et al.). γ-H2AX phosphorylation is an early indicator of DNA double strand breaks and thus, induction of DNA-damage response in cells.
(§7) Phosphorylation of the histone variant γ-H2AX is a rapid and sensitive response to DNA double strand breaks. Aminoflavone induces γ-H2AX foci in drug sensitive MCF-7 and MCF-7TAM1 cells at IC50 concentrations 24 hrs after exposure, but not in aminoflavone resistant MDA-MB-231 breast cancer cells. γ-H2AX was detected by using a FITC-labeled anti-mouse secondary antibody (green) and its nuclear expression is shown by co-localization with the nuclear stain DAPI (blue). AhR was detected with a TRITC-labeled (red) secondary antibody.

MCF-7 HER2-18 [8] = experiment: γ-H2AX foci induction, MCF-7 HER2-18; format: cell-based, human
MCF-7 TAM1 [9] = experiment: γ-H2AX foci induction, MCF-7 TAM1; format: cell-based, human; details: IC50 concentrations, 24 hrs after exposure
Description: as §6, §7

T47D [10] = experiment: γ-H2AX foci induction, T47D; format: cell-based, human
MDA-MB-231 [11] = experiment: γ-H2AX foci induction, MDA-MB-231; format: cell-based, human
Description: as §6, §7

MCF10A [12] = experiment: γ-H2AX foci induction, MCF10A; format: cell-based, human
MCF-7DF203r = experiment: MTT proliferation assay (5 days), MCF-7DF203r; format: cell-based, human; details: MTT 5 days; MCF-7 subclone with acquired resistance to benzothiazoles (DF203)
Description: (Loaiza-Pérez et al.; Leong et al.) Isogenic subclones of MCF-7 resistant to the BZ DF203F (MCF-7DF203r), tamoxifen (MCF-7TAM1, MCF-7Her2-18) and Herceptin® (MCF-7Her2-18) were included.
as §1

ER+MDA-MB-231 cells = experiment: aminoflavone sensitivity of MDA-MB-231 stably transfected with human estrogen receptor-α; format: cell-based
Hs578T = experiment: aminoflavone sensitivity of Hs578T (FIGS. 6A and 6B); format: cell-based, human
LTLC = experiment: growth inhibition in hormone refractory LTLC (FIGS. 5A and 5B); format: cell-based, human; details: LTLC hormone refractory cell line
MCF-7 xenografts = details: 120 mg/kg intraperitoneally, 5 days per week; cited from earlier work
NCI 60 cell line = details: "resistant" cell lines; cited from earlier work
[13] = MCF-7, MTT, mean of three independent experiments

Compound: C[C@]12CC[C@@H]3c4ccc(O)cc4C[C@@H](CCCCCCCCC[S+]([O-])CCCC(F)(F)C(F)(F)F)[C@H]3[C@@H]1CC[C@@H]2O (stereo partly drawn) [Faslodex®, fulvestrant]
- cell growth inhibition compared to aminoflavone alone (MCF-7 cells): inhibited more greatly

- IC50 (MCF-7 [1]; Homo sapiens, MCF7, MCF-7, MTT, mean of three independent experiments): 16 to 20 nM
- IC50 (MCF-7 [1]; [13]): 16 nM
- IC50 (MCF-7 HER2-18 [2]; Homo sapiens): 16 to 20 nM
- IC50 (MCF-7 HER2-18 [2]): 20 nM
- IC50 (MCF-7 TAM1 [3]; Homo sapiens, MCF7:TAM1, 240 h, MCF-7 TAM1, MTT 10 days, plus E2): 550 nM
- IC50 (T47D [4]; Homo sapiens, MTT): 14 nM
- IC50 (ER+MDA-MB-231 cells; MDA-MB-231 stably transfected with human estrogen receptor-α): 5000 nM
Compound: Cc1c(F)c(N)c2c(=O)cc(-c3ccc(N)c(F)c3)oc2c1F [aminoflavone]
- sensitivity to aminoflavone (MCF-7 [1]; MCF-7, MTT 5 days (FIG. 2A)): pronounced susceptibility
- IC100 (MCF-7 [1]; [13]): ~300 nM
- IC100 (MCF-7 HER2-18 [2]): ~300 nM and 375 nM
- IC100 (MCF-7 TAM1 [3]; MCF-7 TAM1, MTT): 2 µM
- IC100 (T47D [4]; MTT): 20 nM
- sensitivity to aminoflavone (T47D [4]; MTT 5 days (FIG. 2A)): pronounced susceptibility
- IC100 (MDA-MB-231 [5]; MTT): >100 µM
- sensitivity to aminoflavone (MDA-MB-231 [5]; MTT 5 days (FIG. 2A)): refractoriness
- IC50 (MCF10A [6]): 3000 nM
- IC100 (MCF10A [6]): 9 µM
- IC50 (MCF10A [6]; Homo sapiens, MCF-10A): 3000 to 25000 nM
- γ-H2AX Focl (MCF-7 [7]): induces and yes
- γ-H2AX Focl (MCF-7 HER2-18 [8]): yes
- γ-H2AX Focl (MCF-7 TAM1 [9]): induces and yes
- γ-H2AX Focl (T47D [10]): yes
- γ-H2AX Focl (MDA-MB-231 [11]): no
- γ-H2AX Focl (MCF10A [12]): no
- sensitivity to aminoflavone (MCF-7DF203r): essentially completely cross-resistant
- sensitivity compared to parental and vector transfected cells (ER+MDA-MB-231 cells; ER+MDA-MB-231 vs parental and vector transfected cells): 5 times
- sensitivity to aminoflavone (Hs578T): resistant
- tumor growth inhibition (LTLC): inhibits tumor growth
- tumor growth inhibition (MCF-7 xenografts): 85 % of control
- total growth inhibition (TGI) (NCI 60 cell line): ≥ 10000 nM

Compound: CC/C(=C(\c1ccc(O)cc1)c1ccc(OCCN(C)C)cc1)c1ccccc1 [4-OH-tamoxifen, reference compound]
- concentration causing growth inhibition (MCF-7 TAM1 [3]; MCF-7TAM1, serum starved, 10 days, plus E2): > 10 µM

Compound: CC/C(=C(\c1ccccc1)c1ccc(OCCN(C)C)cc1)c1ccccc1 [tamoxifen]
- cell growth inhibition compared to aminoflavone alone (MCF-7 cells): inhibited more greatly
